Assay results published in patent US20240166681A1, “3'3' CYCLIC DINUCLEOTIDES CONTAINING ISONUCLEOTIDIC UNITS” (INSTITUTE OF ORGANIC CHEMISTRY AND BIOCHEMISTRY AS CR, V. …, priority 2021, published 2024).
Like-named read-outs stand apart in the source and are kept apart here.

Tests used:
[1] = tested on: peripheral blood mononuclear cell (PBMC); assay: Peripheral blood mononuclear cell assay (cytokine levels); assay type: cell-based; details: 1 h with compound, wash, 15 h, average of at least two donors
Method: Selected compounds were tested in an in vitro peripheral blood mononuclear cell (PBMC) assay. Freshly isolated PBMCs were seeded into U-shaped shaped 96-well plates at desity 500,000 cells per well in 50 μl of RPMI 1640 medium supplemented with 10% heat inactivated FBS. Serially dilluted tested compounds were added to wells in 50 μl of cultivation medium and cell were incubated with compounds for 1 h at 37° C. with 5% CO2. Plates with cells were then spun 500 g for 5 minutes and medium was removed. Cells were washed twice with the cell culture medium by the use of centrifugation and gently resuspended in 100 μl medium without compounds. After 15 hour incubation at 37° C. with 5% CO2, the cell culture medium was collected and the levels of interferon-alpha (INF-α), interferon-gamma (INF-γ) and tumor necrosis factor-alpha (TNF-α) were determined with ProcartaPlex Assays (ThermoFisher, Waltham, USA) and MAGPIX System (Merck KGaA, Darmstadt, Germany). GraphPad Prism (San Diego, CA, USA) was used to calculate the 50% effective concentration (EC50) from a 6-point dose-response curve. Values reported are an average of runs from at least two donors.

[2] = target: WT STING (Homo sapiens, UniProt Q86WV6, H232R); assay: 293T WT STING standard reporter assay; assay type: cell-based; parameters: host or cells: 293T (ATCC CRL-3216), stably transfected; details: 293T wtSTING-FL cells, no digitonin, 7 h incubation, luciferase reporter
Sequence of WT STING (Q86WV6 whole entry H232R): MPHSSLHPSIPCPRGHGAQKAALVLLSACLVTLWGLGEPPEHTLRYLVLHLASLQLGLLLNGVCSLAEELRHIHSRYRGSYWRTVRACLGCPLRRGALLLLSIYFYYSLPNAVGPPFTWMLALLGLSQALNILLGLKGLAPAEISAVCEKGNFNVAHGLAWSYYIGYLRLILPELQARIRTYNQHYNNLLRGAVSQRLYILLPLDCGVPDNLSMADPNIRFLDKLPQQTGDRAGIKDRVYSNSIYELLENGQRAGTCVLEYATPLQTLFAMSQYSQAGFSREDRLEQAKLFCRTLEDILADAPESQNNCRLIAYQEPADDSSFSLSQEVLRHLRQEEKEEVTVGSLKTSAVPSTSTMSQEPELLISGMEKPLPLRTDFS
Method: After 5 minutes incubation at room temperature (RT), 250 μL of the mixture was added dropwise to the cells in one well. Cells were incubated 36 hours at 37° C. with 5% CO2, and then detached with 0.05% Trypsin and 0.22 g/L EDTA (both cat. #L0941, Biowest, Riverside, USA).
Transfected cells were seeded onto poly-D-lysine coated six well plates at density 50,000 cells per 1 cm^2 in DMEM medium with high glucose containing 10% heat inactivated FBS, 30 μg/mL blasticidin (cat. #ant-b1-05, InvivoGen, San Diego, USA), 0.06 mg/ml Penicillin G and 0.1 mg/ml Streptomycin Sulfate (both cat. #. L0018, Biowest, Riverside, USA). The medium was replenished every 3-4 days until visible colonies of cells resistant to blasticidin were formed.
Blasticidin resistant cells stably expressing WT STING were further transfected with […] plasmid following the same procedure as described above. […] Homogeneous culture of stably double transfected cells was prepared by limiting dilution of cells in 96 well plates and wells with cells were selected that originated from a single cell.
The medium was removed next day and three-fold serial dilutions of compounds in 100 μl medium were added to the cells. The plates with cells were incubated for 7 hours at 37° C. with 5% CO2. After 50 μl of the medium was removed, 30 μl of ONE-Glo™ Luciferase Assay System reagent (cat. #E6120, Promega, Madison, USA) was added to each well and luminescence was read on Synergy H1 (Biotek, Winooski, USA). […] (cat. #tlrl-nacga23), and 2′2′-cGAMP (cat. #tlrl-nacga22) were purchased from Invivogen (San Diego, USA).

| EC50 [2] | SMILES | EC50 ([1]; read-out: PBMC EC50 IFN-α) | EC50 ([1]; read-out: PBMC EC50 IFN-γ) | EC50 ([1]; read-out: PBMC EC50 TNF-α) |
| --- | --- | --- | --- | --- |
| 2 nM | CCCCCCCC(=O)OCOP1(=O)OC[C@H]2OC[C@@H](n3cnc4c(N)ncnc43)[C@@H]2OP(=O)(OCOC(=O)CCCCCCC)OC[C@H]2O[C@@H](n3cnc4c(N)ncnc43)[C@H](F)[C@@H]2O1 (single isomer, unassigned) [Compound 58d] | 38 nM | 16 nM | 37 nM |
| 13 nM | CCC(C)(C)C(=O)OCOP1(=O)OC[C@H]2OC[C@@H](n3cnc4c(N)ncnc43)[C@@H]2OP(=O)(OCOC(=O)C(C)(C)CC)OC[C@H]2O[C@@H](n3cnc4c(N)ncnc43)[C@H](F)[C@@H]2O1 (single isomer, unassigned) [Compound 57c] | – | – | – |
| 21 nM | CC1(C(=O)OCOP2(=O)OC[C@H]3OC[C@@H](n4cnc5c(N)ncnc54)[C@@H]3OP(=O)(OCOC(=O)C3(C)CCCCC3)OC[C@H]3O[C@@H](n4cnc5c(N)ncnc54)[C@H](F)[C@@H]3O2)CCCCC1 (single isomer, unassigned) [Compound 56c] | – | – | – |
| 18 nM | CCC(C)(C)C(=O)OCOP1(=O)OC[C@H]2OC[C@@H](n3cnc4c(N)ncnc43)[C@@H]2OP(=O)(OCOC(=O)C(C)(C)CC)OC[C@H]2O[C@@H](n3cnc4c(N)ncnc43)[C@H](F)[C@@H]2O1 (single isomer, unassigned) [Compound 57b] | – | – | – |
| 2 nM | CCCCCCCC(=O)OCOP1(=O)OC[C@H]2OC[C@@H](n3cnc4c(N)ncnc43)[C@@H]2OP(=O)(OCOC(=O)CCCCCCC)OC[C@H]2O[C@@H](n3cnc4c(N)ncnc43)[C@H](F)[C@@H]2O1 (single isomer, unassigned) [Compound 58c] | – | – | – |
| 32 nM | CCC(C)(C)C(=O)OCOP1(=O)OC[C@H]2OC[C@@H](n3cnc4c(N)ncnc43)[C@@H]2OP(=O)(OCOC(=O)C(C)(C)CC)OC[C@H]2O[C@@H](n3cnc4c(N)ncnc43)[C@H](F)[C@@H]2O1 (single isomer, unassigned) [Compound 57a] | – | – | – |
| 41 nM | CC1(C(=O)OCOP2(=O)OC[C@H]3OC[C@@H](n4cnc5c(N)ncnc54)[C@@H]3OP(=O)(OCOC(=O)C3(C)CCCCC3)OC[C@H]3O[C@@H](n4cnc5c(N)ncnc54)[C@H](F)[C@@H]3O2)CCCCC1 (single isomer, unassigned) [Compound 56d] | 325 nM | 48 nM | 159 nM |
| 14 nM | CCC(C)(C)C(=O)OCOP1(=O)OC[C@H]2OC[C@@H](n3cnc4c(N)ncnc43)[C@@H]2OP(=O)(OCOC(=O)C(C)(C)CC)OC[C@H]2O[C@@H](n3cnc4c(N)ncnc43)[C@H](F)[C@@H]2O1 (single isomer, unassigned) [Compound 57d] | 258 nM | 80 nM | 206 nM |
| 285 nM | CC1(C(=O)OCOP2(=O)OC[C@H]3OC[C@@H](n4cnc5c(N)ncnc54)[C@@H]3OP(=O)(OCOC(=O)C3(C)CCCCC3)OC[C@H]3O[C@@H](n4cnc5c(N)ncnc54)[C@H](F)[C@@H]3O2)CCCCC1 (single isomer, unassigned) [Compound 56a] | – | – | – |
| 1 nM | CCCCCCCC(=O)OCOP1(=O)OC[C@H]2OC[C@@H](n3cnc4c(N)ncnc43)[C@@H]2OP(=O)(OCOC(=O)CCCCCCC)OC[C@H]2O[C@@H](n3cnc4c(N)ncnc43)[C@H](F)[C@@H]2O1 (single isomer, unassigned) [Compound 58b] | – | – | – |
| 10200 nM | Nc1nc2c(ncn2[C@@H]2O[C@@H]3COP(=O)(O)O[C@@H]4[C@H](O)[C@@H](COP(=O)(O)O[C@@H]2[C@@H]3O)O[C@H]4n2cnc3c(N)ncnc32)c(=O)[nH]1 [2′2′-cGAMP, reference compound] | – | – | – |
| 52 nM | CC(C)(C)C(=O)OCOP1(=O)OC[C@H]2OC[C@@H](n3cnc4c(N)ncnc43)[C@@H]2OP(=O)(OCOC(=O)C(C)(C)C)OC[C@H]2O[C@@H](n3cnc4c(N)ncnc43)[C@H](F)[C@@H]2O1 (single isomer, unassigned) [Compound 36c] | – | – | – |
| 5 nM | CCCCCCCC(=O)OCOP1(=O)OC[C@H]2OC[C@@H](n3cnc4c(N)ncnc43)[C@@H]2OP(=O)(OCOC(=O)CCCCCCC)OC[C@H]2O[C@@H](n3cnc4c(N)ncnc43)[C@H](F)[C@@H]2O1 (single isomer, unassigned) [Compound 58a] | – | – | – |
| 77 nM | CC(C)(C)C(=O)OCOP1(=O)OC[C@H]2OC[C@@H](n3cnc4c(N)ncnc43)[C@@H]2OP(=O)(OCOC(=O)C(C)(C)C)OC[C@H]2O[C@@H](n3cnc4c(N)ncnc43)[C@H](F)[C@@H]2O1 (single isomer, unassigned) [Compound 36b] | – | – | – |
| 28 nM | CC(C)(C)C(=O)OCOP1(=O)OC[C@H]2OC[C@@H](n3cnc4c(N)ncnc43)[C@@H]2OP(=O)(OCOC(=O)C(C)(C)C)OC[C@H]2O[C@@H](n3cnc4c(N)ncnc43)[C@H](F)[C@@H]2O1 (single isomer, unassigned) [Compound 36d] | 184 nM | 115 nM | 326 nM |
| 88 nM | CC(C)(C)C(=O)OCOP1(=O)OC[C@H]2OC[C@@H](n3cnc4c(N)ncnc43)[C@@H]2OP(=O)(OCOC(=O)C(C)(C)C)OC[C@H]2O[C@@H](n3cnc4c(N)ncnc43)[C@H](F)[C@@H]2O1 (single isomer, unassigned) [Compound 36a] | – | – | – |
| 44 nM | CC1(C(=O)OCOP2(=O)OC[C@H]3OC[C@@H](n4cnc5c(N)ncnc54)[C@@H]3OP(=O)(OCOC(=O)C3(C)CCCCC3)OC[C@H]3O[C@@H](n4cnc5c(N)ncnc54)[C@H](F)[C@@H]3O2)CCCCC1 (single isomer, unassigned) [Compound 56b] | – | – | – |
